target: T1, human HSL (Homo sapiens, UniProt Q05469); assay: Human Hormone-Sensitive Lipase (HSL) enzyme inhibition assay (colorimetric, DMPT substrate); assay type: biochemical; conditions: human full length HSL-His6, 2,3-dimercapto-1-propanol tributyrate substrate, 37° C. 20 minutes, absorbance at 405 nm; read-out: HSL hum IC50
T1 construct: generate a full length human HSL ORF with a 3′-His6 tag; made in house; host or cells: High 5 insect cells (baculovirus, pFast-BAC)
T1 sequence (Q05469 1-1076): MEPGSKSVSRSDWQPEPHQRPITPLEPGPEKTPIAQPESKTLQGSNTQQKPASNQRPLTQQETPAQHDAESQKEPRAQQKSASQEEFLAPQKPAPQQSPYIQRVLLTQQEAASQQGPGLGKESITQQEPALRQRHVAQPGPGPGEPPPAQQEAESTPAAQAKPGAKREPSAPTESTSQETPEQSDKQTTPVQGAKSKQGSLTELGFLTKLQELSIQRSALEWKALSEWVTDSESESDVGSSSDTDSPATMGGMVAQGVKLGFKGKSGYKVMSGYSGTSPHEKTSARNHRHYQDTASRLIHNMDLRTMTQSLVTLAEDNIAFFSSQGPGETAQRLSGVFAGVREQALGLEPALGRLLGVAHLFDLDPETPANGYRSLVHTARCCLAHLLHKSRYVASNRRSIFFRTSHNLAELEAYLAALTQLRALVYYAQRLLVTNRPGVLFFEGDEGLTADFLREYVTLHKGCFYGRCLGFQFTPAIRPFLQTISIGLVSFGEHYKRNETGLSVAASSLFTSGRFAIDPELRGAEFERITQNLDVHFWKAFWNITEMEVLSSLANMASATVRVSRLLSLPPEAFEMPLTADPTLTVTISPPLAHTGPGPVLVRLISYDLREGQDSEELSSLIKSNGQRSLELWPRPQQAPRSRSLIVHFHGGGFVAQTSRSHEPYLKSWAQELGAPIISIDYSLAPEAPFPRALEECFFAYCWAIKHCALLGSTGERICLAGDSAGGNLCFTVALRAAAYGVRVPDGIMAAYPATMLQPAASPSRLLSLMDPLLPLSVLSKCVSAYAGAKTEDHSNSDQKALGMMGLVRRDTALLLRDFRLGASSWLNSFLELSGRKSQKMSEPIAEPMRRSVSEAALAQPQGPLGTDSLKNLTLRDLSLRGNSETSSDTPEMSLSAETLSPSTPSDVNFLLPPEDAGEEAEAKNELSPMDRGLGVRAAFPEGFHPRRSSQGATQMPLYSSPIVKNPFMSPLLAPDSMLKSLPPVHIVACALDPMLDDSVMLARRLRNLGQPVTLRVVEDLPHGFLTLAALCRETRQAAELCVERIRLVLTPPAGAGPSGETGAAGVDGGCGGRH
Procedure: Production of Human Full Length Hormone Sensitive Lipase-His^6:
1) Cloning: cDNA was prepared from commercial human brain polyA+ RNA and used as a template in overlapping PCR to generate a full length human HSL ORF with a 3′-His6 tag. This full length insert was cloned into the pFast-BAC vector and the DNA-sequence of several single clones was verified. DNA from a correct full length clone with the 3′His6 tag was used to transform the E. coli strain DH10BAC. Resulting bacmid DNA was used to generate a titered baculovirus stock for protein generation. The sequence of the encoded HSL conforms to Swissprot entry Q05469, with the additional C-terminal His6-tag. 2) Protein purification: Culture: 5.5 L, High 5 cells expressing human full length HSL-His^6, 48 hr., containing 25 μM E-64. Cell count: […], 90% viable. Cells were thawed. On ice, cells were suspended in Base Buffer containing 10% glycerol, 25 mM Tris-Cl, 300 mM NaCl, 10 mM imidazole, 10 mM 2-mercaptoethanol, 2 μg pepstatin/ml, 2 μg leupeptin/ml, 2 μg antipain/ml, pH 8.0 at 4° C. in a final volume of 475 ml with 3.75×10^7 cells/ml. […] was done at 3×30 sec., Lubrol PX was added to 0.2% final concentration followed by stirring for 15 min. at 4° C. and centrifugation at 25 k×g, 60 min., 4° C. Soluble proteins were mixed with 60 ml of pre-washed and equilibrated Ni-NTA Agarose (Qiagen 30210) followed by tumbling end-over-end, 45 min., 4° C., centrifugation 1000 rpm 5 min and letting resin settle 5 min. Supernatant was removed, the resin washed in the centrifuge vessel using 5 volumes of Base Buffer containing 0.2% Lubrol PX. Centrifugation was done again, then the supernatant discarded. The resin was poured onto a 0.8 μm membrane in a disposable filter unit (Nalge 450-0080), and washed with 5 volumes of Base Buffer containing 0.2% Lubrol PX. It was then washed with 30 volumes of Base Buffer containing 60 mM imidazole pH 7.5 at 4° C. The protein was eluated with 5 volumes of 25 mM Tris-Cl, 300 mM NaCl, 200 mM imidazole, 10 mM 2-mercaptoethanol, pH 7.5 at 4° C. by tumbling resin with buffer end-over-end, 30 min., 4° C. The resin was captured on a 0.2 μm membrane disposable filter unit (Millipore SCGP U02 RE) and the eluate collected in the reservoir. The eluate was concentrated using a 30 k MWCO centrifugal filter device (Sartorius Vivascience Vivacell 100, VC1022), to 20 ml. It was then dialyzed overnight at 4° C., two times against 2 L of 10% glycerol, 25 mM Tris-Cl, 300 mM NaCl, 0.2 mM EDTA, 0.2 mM DTT, pH 7.5 at 4° C. The protein was filtered using a 0.22 μm disposable filter unit (Millipore SCGP00525). The protein concentration was calculated from absorbance at 280 nm, using 280=0.67 cm-1 mg-1. Yield was 235 mg, total. The protein was stored at −80° C. Human Hormone-Sensitive Lipase (HSL) Enzyme Inhibition Assay:
HSL enzyme activity was measured by a colorimetric assay using 2,3-dimercapto-1-propanol tributyrate (Aldrich, St. Louis, Mo.) as a substrate. Typically, 1.5 mM 2,3-dimercapto-1-propanol tributyrate (DMPT) in 100 mM MOPS, pH 7.2, 0.2 mg/ml fatty acid-free BSA was prepared by sonication at 4° C. to homogenous suspension. Test compounds (2 mM stock in DMSO) were diluted 3 fold in series in DMSO. Compound solutions were diluted 24 fold in 1.5 mM DMPT containing solution and 18 ul per well was added to 384-well microplates (Corning Costar). Twelve microliters per well of human HSL (15 ug/ml) was added and the reaction mixture was incubated at 37° C. for 20 minutes. Six microliters of 12 mM dithio-bis-(2-nitrobenzoic acid) (DTNB) in DMSO plus 1.2% SDS and 0.6% Triton X-100 were added and the mixture was incubated at room temperature for 15 minutes. Product production was monitored by reading absorbance at 405 nm on an Envision Reader (PerkinElmer Life and Analytical Sciences, Shelton, Conn.).

| IC50 [µM] | SMILES |
| --- | --- |
| 0.2 | O=C1N(c2ccc(OC(F)(F)F)cc2)CC[C@]12CC=CCC2 [Example 50, 2-(4-Trifluoromethoxy-phenyl)-2-aza-spiro[4.5]dec-7-en-1-one] |
| 0.02 | O=C1N(c2ccc(OC(F)(F)F)cc2)CC[C@]12CC[C@@H]([S+]([O-])c1ccccc1)CC2 (stereo partly drawn) [Example 51, (5α,8β)-8-Benzenesulfinyl-2-(4-trifluoromethoxy-phenyl)-2-aza-spiro[4.5]decan-1-one] |
| 2.27 | O=C1N(c2ccc(OC(F)(F)F)cc2)CC[C@]12CC[C@H](Sc1ccccc1)CC2 [Example 52, (5α,8α)-8-Phenylsulfanyl-2-(4-trifluoromethoxy-phenyl)-2-aza-spiro[4.5]decan-1-one] |
| 0.03 | O=C1N(c2ccc(OC(F)(F)F)cc2)CC[C@]12CC[C@@H](S(=O)(=O)c1ccccc1)CC2 [Example 53, (5α,8β)-8-Benzenesulfonyl-2-(4-trifluoromethoxy-phenyl)-2-aza-spiro[4.5]decan-1-one] |
| 0.64 | O=C1CCC2(CC1)CCN(c1ccc(OC(F)(F)F)cc1)C2=O [Example 54, 2-(4-Trifluoromethoxy-phenyl)-2-aza-spiro[4.5]decane-1,8-dione] |
| 0.02 | CCC[C@]1(O)CC[C@]2(CCN(c3ccc(OC(F)(F)F)cc3)C2=O)CC1 [Example 55, (5α,8α)-8-Hydroxy-8-propyl-2-(4-trifluoromethoxy-phenyl)-2-aza-spiro[4.5]decan-1-one] |
| 0.57 | CCC[C@]1(O)CC[C@@]2(CCN(c3ccc(OC(F)(F)F)cc3)C2=O)CC1 [Example 56, (5α,8β)-8-Hydroxy-8-propyl-2-(4-trifluoromethoxy-phenyl)-2-aza-spiro[4.5]decan-1-one] |
| 0.07 | C[C@]1(O)CC[C@]2(CCN(c3ccc(OC(F)(F)F)cc3)C2=O)CC1 [Example 57, (5α,8α)-8-Hydroxy-8-methyl-2-(4-trifluoromethoxy-phenyl)-2-aza-spiro[4.5]decan-1-one] |
| 0.95 | C[C@]1(O)CC[C@@]2(CCN(c3ccc(OC(F)(F)F)cc3)C2=O)CC1 [Example 58, (5α,8β)-8-Hydroxy-8-methyl-2-(4-trifluoromethoxy-phenyl)-2-aza-spiro[4.5]decan-1-one] |
| 1.6 | CC1=CC[C@@]2(CC1)CCN(c1ccc(OC(F)(F)F)cc1)C2=O [Example 59, 8-Methyl-2-(4-trifluoromethoxy-phenyl)-2-aza-spiro[4.5]dec-7-en-1-one] |
| 0.03 | CC[C@]1(O)CC[C@]2(CCN(c3ccc(OC(F)(F)F)cc3)C2=O)CC1 [Example 60, (5α,8α)-8-Ethyl-8-hydroxy-2-(4-trifluoromethoxy-phenyl)-2-aza-spiro[4.5]decan-1-one] |
| 2.09 | CC[C@]1(O)CC[C@@]2(CCN(c3ccc(OC(F)(F)F)cc3)C2=O)CC1 [Example 61, (5α,8β)-8-Ethyl-8-hydroxy-2-(4-trifluoromethoxy-phenyl)-2-aza-spiro[4.5]decan-1-one] |
| 0.02 | O=C1N(c2ccc(OC(F)(F)F)cc2)CC[C@]12CC[C@@](O)(Cc1ccccc1)CC2 [Example 62, (5α,8α)-8-Benzyl-8-hydroxy-2-(4-trifluoromethoxy-phenyl)-2-aza-spiro[4.5]decan-1-one] |

The remaining lines, values behind:

| SMILES | IC50 [µM] |
| --- | --- |
| O=C1N(c2ccc(C3CC3)cc2)CC[C@]12CC[C@H](O)CC2 [Example 39, (5α,8α)-2-(4-Cyclopropyl-phenyl)-8-hydroxy-2-aza-spiro[4.5]decan-1-one] | 0.56 |
| COc1ccc(N2CC[C@]3(CC[C@H](OCc4ccccc4)CC3)C2=O)cc1 [Example 40, (5α,8α)-8-Benzyloxy-2-(4-methoxy-phenyl)-2-aza-spiro[4.5]decan-1-one] | 4.59 |
| CCO[C@H]1CC[C@]2(CCN(c3ccc(OC(F)(F)F)cc3)C2=O)CC1 [Example 41, (5α,8α)-8-Ethoxy-2-(4-trifluoromethoxy-phenyl)-2-aza-spiro[4.5]decan-1-one] | 0.39 |
| CCCO[C@H]1CC[C@]2(CCN(c3ccc(OC(F)(F)F)cc3)C2=O)CC1 [Example 42, (5α,8α)-8-Propoxy-2-(4-trifluoromethoxy-phenyl)-2-aza-spiro[4.5]decan-1-one] | 0.32 |
| CCc1ccc(N2CC[C@]3(CC[C@H](OCc4ccccc4)CC3)C2=O)cc1 [Example 43, (5α,8α)-8-Benzyloxy-2-(4-ethyl-phenyl)-2-aza-spiro[4.5]decan-1-one] | 0.74 |
| CCCNC(=O)O[C@H]1CC[C@]2(CCN(c3ccc(CC)cc3)C2=O)CC1 [Example 44, Propyl-carbamic acid [(5α,8α)-2-(4-ethyl-phenyl)-1-oxo-2-aza-spiro[4.5]dec-8-yl]ester] | 1.48 |
| CCc1ccc(N2CC[C@]3(CC[C@H](OC(=O)NCc4cccc(F)c4)CC3)C2=O)cc1 [Example 45, (3-Fluoro-benzyl)-carbamic acid [(5α,8α)-2-(4-ethyl-phenyl)-1-oxo-2-aza-spiro[4.5]dec-8-yl]ester] | 1.11 |
| COc1ccc(N2CC[C@]3(CC[C@H](Oc4ccccc4)CC3)C2=O)cc1 [Example 46, (5α,8α)-2-(4-Methoxy-phenyl)-8-phenoxy-2-aza-spiro[4.5]decan-1-one] | 4.24 |
| COc1ccc(N2CCC3(CC=CCC3)C2=O)cc1 (centres unmarked) [Example 47, 2-(4-Methoxy-phenyl)-2-aza-spiro[4.5]dec-7-en-1-one] | 6.75 |
| COc1ccc(N2CC[C@]3(CC[C@@H](Oc4ccccc4)CC3)C2=O)cc1 [Example 48, (5α,8β)-2-(4-Methoxy-phenyl)-8-phenoxy-2-aza-spiro[4.5]decan-1-one] | 1.71 |
